Source: US20230203098A1, “HUMAN TRANSFERRIN RECEPTOR BINDING PEPTIDE” (priority 2020, published 2023)
Where two headings read alike, the source gives them in different places.

Biological target: transferrin receptor (hTfR) (Homo sapiens, UniProt P02786)
Assay: Intermolecular interaction evaluation test between transferrin receptor (hTfR) and peptide by surface plasmon resonance (SPR)
Type: binding
How it was run: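 Receptor was Ni-captured and EDC/NHS-fixed on an NTA chip; running buffer HEPES pH 8.0 with NaCl, Tween 20, BSA and 1.0% DMSO.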

[1] = SPR, linker and payload (FITC, VivoTag) conjugates, read-out: KD
[2] = hTfR binding by SPR, hTfR No. 894 variant peptides, linker-added peptides and payload conjugates (Table 2), read-out: KD value obtained from the SPR measurement

transferrin receptor (hTfR), sequence (P02786 whole entry): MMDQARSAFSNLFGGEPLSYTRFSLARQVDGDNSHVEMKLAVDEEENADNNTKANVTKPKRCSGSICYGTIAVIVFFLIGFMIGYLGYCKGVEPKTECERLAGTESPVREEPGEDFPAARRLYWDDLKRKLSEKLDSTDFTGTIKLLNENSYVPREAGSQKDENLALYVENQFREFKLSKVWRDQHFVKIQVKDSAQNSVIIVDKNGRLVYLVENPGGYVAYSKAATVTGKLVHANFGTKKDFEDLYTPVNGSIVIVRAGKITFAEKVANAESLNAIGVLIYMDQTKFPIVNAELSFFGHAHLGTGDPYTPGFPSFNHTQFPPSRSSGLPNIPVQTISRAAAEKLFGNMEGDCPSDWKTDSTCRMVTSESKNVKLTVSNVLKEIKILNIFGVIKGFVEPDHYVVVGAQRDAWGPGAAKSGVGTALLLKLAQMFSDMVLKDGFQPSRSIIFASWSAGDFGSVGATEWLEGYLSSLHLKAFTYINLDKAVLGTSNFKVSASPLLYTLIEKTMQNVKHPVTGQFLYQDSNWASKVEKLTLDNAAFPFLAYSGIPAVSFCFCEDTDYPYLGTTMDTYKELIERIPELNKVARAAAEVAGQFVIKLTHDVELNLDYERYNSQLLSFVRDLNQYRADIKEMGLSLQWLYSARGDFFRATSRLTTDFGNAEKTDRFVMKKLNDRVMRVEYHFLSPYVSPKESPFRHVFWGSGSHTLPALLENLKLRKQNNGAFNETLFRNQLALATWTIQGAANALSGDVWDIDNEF

| SMILES | Kd [1] | Kd [2] |
| --- | --- | --- |
| CC[C@H](C)[C@@H]1NC(=O)[C@H](Cc2ccc(O)cc2)NC(=O)[C@H](Cc2ccc(O)cc2)NC(=O)[C@H](CC(N)=O)NC(=O)[C@H](Cc2c[nH]c3ccccc23)NC(=O)[C@H](C(C)C)NC(=O)[C@H](Cc2ccccc2)NC(=O)[C@H](C(C)C)NC(=O)[C@H](C)N(C)C(=O)CSC[C@@H](C(=O)NCCOCCOCCOCCOCCC(=O)N[C@@H](CNC(=O)c2ccc(-c3c4ccc(=O)cc-4oc4cc(O)ccc34)c(C(=O)O)c2)C(N)=O)NC(=O)[C@H](Cc2ccc(O)cc2)N(C)C(=O)[C@H](Cc2ccc(O)cc2)NC(=O)[C@H](CCCNC(=N)N)NC(=O)[C@H](CCCNC(=N)N)NC(=O)[C@H]([C@@H](C)CC)NC1=O [compound 161] | 1 to 100 nM | – |
| CC[C@H](C)[C@@H]1NC(=O)[C@H](Cc2ccc(O)cc2)NC(=O)[C@H](Cc2ccc(O)cc2)NC(=O)[C@H](CC(N)=O)NC(=O)[C@H](Cc2c[nH]c3ccccc23)NC(=O)[C@H](C(C)C)NC(=O)[C@H](Cc2ccccc2)N(C)C(=O)[C@H](C(C)C)NC(=O)[C@H](C)NC(=O)CSC[C@@H](C(=O)NCCOCCOCCOCCOCCC(=O)N[C@@H](CNC(=O)c2ccc(-c3c4ccc(=O)cc-4oc4cc(O)ccc34)c(C(=O)O)c2)C(N)=O)NC(=O)[C@H](Cc2ccc(O)cc2)N(C)C(=O)[C@H](Cc2ccc(O)cc2)NC(=O)[C@H](CCCNC(=N)N)NC(=O)[C@H](CCCNC(=N)N)NC(=O)[C@H]([C@@H](C)CC)NC1=O [compound 162] | 1 to 100 nM | – |
| CC[C@H](C)[C@@H]1NC(=O)[C@H](Cc2ccc(O)cc2)NC(=O)[C@H](Cc2ccc(O)cc2)NC(=O)[C@H](CC(N)=O)NC(=O)[C@H](Cc2c[nH]c3ccccc23)N(C)C(=O)[C@H](C(C)C)NC(=O)[C@H](Cc2ccccc2)NC(=O)[C@H](C(C)C)NC(=O)[C@H](C)NC(=O)CSC[C@@H](C(=O)NCCOCCOCCOCCOCCC(=O)N[C@@H](CNC(=O)c2ccc(-c3c4ccc(=O)cc-4oc4cc(O)ccc34)c(C(=O)O)c2)C(N)=O)NC(=O)[C@H](Cc2ccc(O)cc2)N(C)C(=O)[C@H](Cc2ccc(O)cc2)NC(=O)[C@H](CCCNC(=N)N)NC(=O)[C@H](CCCNC(=N)N)NC(=O)[C@H]([C@@H](C)CC)NC1=O [compound 163] | 1 to 100 nM | – |
| CC[C@H](C)[C@@H]1NC(=O)[C@H](Cc2ccc(O)cc2)NC(=O)[C@H](Cc2ccc(O)cc2)NC(=O)[C@H](CC(N)=O)NC(=O)[C@H](Cc2c[nH]c3ccccc23)NC(=O)[C@H](C(C)C)NC(=O)[C@H](Cc2ccccc2)NC(=O)[C@H](C(C)C)NC(=O)[C@H](C)NC(=O)CSC[C@@H](C(=O)NCCOCCOCCOCCOCCC(=O)N[C@@H](CNC(=O)c2ccc(-c3c4ccc(=O)cc-4oc4cc(O)ccc34)c(C(=O)O)c2)C(N)=O)NC(=O)[C@H](Cc2ccc(O)cc2)N(C)C(=O)[C@H](Cc2ccc(O)cc2)NC(=O)[C@H](CCCNC(=N)N)NC(=O)[C@H](CCCNC(=N)N)N(C)C(=O)[C@H]([C@@H](C)CC)NC1=O [compound 164] | 1 to 100 nM | – |
| CC[C@H](C)[C@@H]1NC(=O)[C@H](Cc2ccc(O)cc2)NC(=O)[C@H](Cc2ccc(O)cc2)NC(=O)[C@H](CC(N)=O)NC(=O)[C@H](Cc2c[nH]c3ccccc23)NC(=O)[C@H](C(C)C)NC(=O)[C@H](Cc2ccccc2)N(C)C(=O)[C@H](C(C)C)NC(=O)[C@H](C)NC(=O)CSC[C@@H](C(=O)NCCOCCOCCOCCOCCC(=O)NCCOCCOCCOCCOCCC(=O)N[C@@H](CCCCNC(=O)C2CCC(CN3C(=O)C=CC3=O)CC2)C(N)=O)NC(=O)[C@H](Cc2ccc(O)cc2)N(C)C(=O)[C@H](Cc2ccc(O)cc2)NC(=O)[C@H](CCCNC(=N)N)NC(=O)[C@H](CCCNC(=N)N)NC(=O)[C@H]([C@@H](C)CC)NC1=O (some centres unmarked) [compound 181] | – | < 1 nM |
| CC[C@H](C)[C@@H]1NC(=O)[C@H](Cc2ccc(O)cc2)NC(=O)[C@H](Cc2ccc(O)cc2)NC(=O)[C@H](CC(N)=O)NC(=O)[C@H](Cc2c[nH]c3ccccc23)NC(=O)[C@H](C(C)C)NC(=O)[C@H](Cc2ccccc2)N(C)C(=O)[C@H](C(C)C)NC(=O)[C@H](C)NC(=O)CSC[C@@H](C(=O)NCCOCCOCCOCCOCCC(=O)NCCOCCOCCOCCOCCC(=O)NCCOCCOCCOCCOCCC(=O)N[C@@H](CCCCNC(=O)C2CCC(CN3C(=O)C=CC3=O)CC2)C(N)=O)NC(=O)[C@H](Cc2ccc(O)cc2)N(C)C(=O)[C@H](Cc2ccc(O)cc2)NC(=O)[C@H](CCCNC(=N)N)NC(=O)[C@H](CCCNC(=N)N)NC(=O)[C@H]([C@@H](C)CC)NC1=O (some centres unmarked) [compound 182] | – | 1 to 100 nM |
| CC[C@H](C)[C@@H]1NC(=O)[C@H](Cc2ccc(O)cc2)NC(=O)[C@H](Cc2ccc(O)cc2)NC(=O)[C@H](CC(N)=O)NC(=O)[C@H](Cc2c[nH]c3ccccc23)N(C)C(=O)[C@H](C(C)C)NC(=O)[C@H](Cc2ccccc2)N(C)C(=O)[C@H](C(C)C)NC(=O)[C@H](C)NC(=O)CSC[C@@H](C(=O)NCCOCCOCCOCCOCCOCCOCCOCCOCCOCCOCCOCCOCCC(=O)N[C@@H](CCCCNC(=O)C2CCC(CN3C(=O)C=CC3=O)CC2)C(N)=O)NC(=O)[C@H](Cc2ccc(O)cc2)N(C)C(=O)[C@H](Cc2ccc(O)cc2)NC(=O)[C@H](CCCNC(=N)N)NC(=O)[C@H](CCCNC(=N)N)NC(=O)[C@H]([C@@H](C)CC)NC1=O (some centres unmarked) [compound 183] | – | 1 to 100 nM |
| CC[C@H](C)[C@@H]1NC(=O)[C@H](Cc2ccc(O)cc2)NC(=O)[C@H](Cc2ccc(O)cc2)NC(=O)[C@H](CC(N)=O)NC(=O)[C@H](Cc2c[nH]c3ccccc23)N(C)C(=O)[C@H](C(C)C)NC(=O)[C@H](Cc2ccccc2)N(C)C(=O)[C@H](C(C)C)NC(=O)[C@H](C)NC(=O)CSC[C@@H](C(=O)NCCOCCOCCOCCOCCC(=O)N[C@@H](CCCCNC(=O)C2CCC(CN3C(=O)C=CC3=O)CC2)C(N)=O)NC(=O)[C@H](Cc2ccc(O)cc2)N(C)C(=O)[C@H](Cc2ccc(O)cc2)NC(=O)[C@H](CCCNC(=N)N)NC(=O)[C@H](CCCNC(=N)N)NC(=O)[C@H]([C@@H](C)CC)NC1=O (some centres unmarked) [compound 184] | – | 1 to 100 nM |
| CC[C@H](C)[C@@H]1NC(=O)[C@H](Cc2ccc(O)cc2)NC(=O)[C@H](Cc2ccc(O)cc2)NC(=O)[C@H](CC(N)=O)NC(=O)[C@H](Cc2c[nH]c3ccccc23)N(C)C(=O)[C@H](C(C)C)NC(=O)[C@H](Cc2ccccc2)N(C)C(=O)[C@H](C(C)C)NC(=O)[C@H](C)NC(=O)CSC[C@@H](C(=O)NCCOCCOCCOCCOCCOCCOCCOCCOCCC(=O)N[C@@H](CCCCNC(=O)C2CCC(CN3C(=O)C=CC3=O)CC2)C(N)=O)NC(=O)[C@H](Cc2ccc(O)cc2)N(C)C(=O)[C@H](Cc2ccc(O)cc2)NC(=O)[C@H](CCCNC(=N)N)NC(=O)[C@H](CCCNC(=N)N)NC(=O)[C@H]([C@@H](C)CC)NC1=O (some centres unmarked) [compound 185] | – | 1 to 100 nM |
| CC[C@H](C)[C@@H]1NC(=O)[C@H](Cc2ccc(O)cc2)NC(=O)[C@H](Cc2ccc(O)cc2)NC(=O)[C@H](CC(N)=O)NC(=O)[C@H](Cc2c[nH]c3ccccc23)NC(=O)[C@H](C(C)C)NC(=O)[C@H](Cc2ccccc2)N(C)C(=O)[C@H](C(C)C)NC(=O)[C@H](C)NC(=O)CSC[C@@H](C(=O)N[C@@H](CCCCNC(=O)C2CCC(CN3C(=O)C=CC3=O)CC2)C(N)=O)NC(=O)[C@H](Cc2ccc(O)cc2)N(C)C(=O)[C@H](Cc2ccc(O)cc2)NC(=O)[C@H](CCCNC(=N)N)NC(=O)[C@H](CCCNC(=N)N)NC(=O)[C@H]([C@@H](C)CC)NC1=O (some centres unmarked) [compound 186] | – | 1 to 100 nM |
| CC[C@H](C)[C@@H]1NC(=O)[C@H](Cc2ccc(O)cc2)NC(=O)[C@H](Cc2ccc(O)cc2)NC(=O)[C@H](CC(N)=O)NC(=O)[C@H](Cc2c[nH]c3ccccc23)NC(=O)[C@H](C(C)C)NC(=O)[C@H](Cc2ccccc2)N(C)C(=O)[C@H](C(C)C)NC(=O)[C@H](C)NC(=O)CSC[C@@H](C(=O)NCC(=O)NCC(=O)NCC(=O)N[C@@H](CO)C(=O)N[C@@H](CO)C(=O)N[C@@H](CCCCNC(=O)C2CCC(CN3C(=O)C=CC3=O)CC2)C(N)=O)NC(=O)[C@H](Cc2ccc(O)cc2)N(C)C(=O)[C@H](Cc2ccc(O)cc2)NC(=O)[C@H](CCCNC(=N)N)NC(=O)[C@H](CCCNC(=N)N)NC(=O)[C@H]([C@@H](C)CC)NC1=O (some centres unmarked) [compound 187] | – | 1 to 100 nM |
| CC[C@H](C)[C@@H]1NC(=O)[C@H](Cc2ccc(O)cc2)NC(=O)[C@H](Cc2ccc(O)cc2)NC(=O)[C@H](CC(N)=O)NC(=O)[C@H](Cc2c[nH]c3ccccc23)NC(=O)[C@H](C(C)C)NC(=O)[C@H](Cc2ccccc2)N(C)C(=O)[C@H](C(C)C)NC(=O)[C@H](C)NC(=O)CSC[C@@H](C(=O)NCC(=O)N[C@@H](CCCCNC(=O)C2CCC(CN3C(=O)C=CC3=O)CC2)C(N)=O)NC(=O)[C@H](Cc2ccc(O)cc2)N(C)C(=O)[C@H](Cc2ccc(O)cc2)NC(=O)[C@H](CCCNC(=N)N)NC(=O)[C@H](CCCNC(=N)N)NC(=O)[C@H]([C@@H](C)CC)NC1=O (some centres unmarked) [compound 188] | – | 1 to 100 nM |
| CC[C@H](C)[C@@H]1NC(=O)[C@H](Cc2ccc(O)cc2)NC(=O)[C@H](Cc2ccc(O)cc2)NC(=O)[C@H](CC(N)=O)NC(=O)[C@H](Cc2c[nH]c3ccccc23)NC(=O)[C@H](C(C)C)NC(=O)[C@H](Cc2ccccc2)N(C)C(=O)[C@H](C(C)C)NC(=O)[C@H](C)NC(=O)CSC[C@@H](C(=O)NCC(=O)NCC(=O)N[C@@H](CO)C(=O)NCC(=O)N[C@@H](CO)C(=O)N[C@@H](CO)C(=O)NCC(=O)N[C@@H](CO)C(=O)N[C@@H](CO)C(=O)N[C@@H](CCCCNC(=O)C2CCC(CN3C(=O)C=CC3=O)CC2)C(N)=O)NC(=O)[C@H](Cc2ccc(O)cc2)N(C)C(=O)[C@H](Cc2ccc(O)cc2)NC(=O)[C@H](CCCNC(=N)N)NC(=O)[C@H](CCCNC(=N)N)NC(=O)[C@H]([C@@H](C)CC)NC1=O (some centres unmarked) [compound 189] | – | 1 to 100 nM |
| CC[C@H](C)[C@@H]1NC(=O)[C@H](Cc2ccc(O)cc2)NC(=O)[C@H](Cc2ccc(O)cc2)NC(=O)[C@H](CC(N)=O)NC(=O)[C@H](Cc2c[nH]c3ccccc23)NC(=O)[C@H](C(C)C)NC(=O)[C@H](Cc2ccccc2)N(C)C(=O)[C@H](C(C)C)NC(=O)[C@H](C)NC(=O)CSC[C@@H](C(=O)NCC(=O)NCC(=O)N[C@@H](CCC(=O)O)C(=O)N[C@@H](CO)C(=O)N[C@@H](CCC(=O)O)C(=O)N[C@@H](CO)C(=O)N[C@@H](CCCCNC(=O)C2CCC(CN3C(=O)C=CC3=O)CC2)C(N)=O)NC(=O)[C@H](Cc2ccc(O)cc2)N(C)C(=O)[C@H](Cc2ccc(O)cc2)NC(=O)[C@H](CCCNC(=N)N)NC(=O)[C@H](CCCNC(=N)N)NC(=O)[C@H]([C@@H](C)CC)NC1=O (some centres unmarked) [compound 192] | – | 1 to 100 nM |
